The target of assay [1] is T1, Recombinant STAT3 protein (STAT3 (G127-I722)) (Homo sapiens, UniProt P40763).
T1 construct: Recombinant STAT3 protein (STAT3 (G127-I722))
The assay can be described thus: STAT3 Fluorescence Polarization (FP) Assay. Type of assay: binding. The settings on record: STAT3 25 nM, probe 5-FAM-GpYLPQTV-NH2 2 nM, 45-minute incubation; read-out: STAT3 (FP assay IC50). In outline: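 In this competition FP format, STAT3 residues G127-I722 (25 nM) and 2 nM 5-FAM-GpYLPQTV-NH2 met test compounds for 45 min at room temperature. IC50 values result from fitting mP signal against log concentration by nonlinear regression.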
A general note: Polarisation of emitted light reports the rotation of a fluorescent probe.

The target in assay [2] is T2, Recombinant STAT6 protein (STAT6 (W123-T658)) (Homo sapiens, UniProt P42226).
T2 construct: Recombinant STAT6 protein (STAT6 (W123-T658))
T2 sequence (P42226 123-658): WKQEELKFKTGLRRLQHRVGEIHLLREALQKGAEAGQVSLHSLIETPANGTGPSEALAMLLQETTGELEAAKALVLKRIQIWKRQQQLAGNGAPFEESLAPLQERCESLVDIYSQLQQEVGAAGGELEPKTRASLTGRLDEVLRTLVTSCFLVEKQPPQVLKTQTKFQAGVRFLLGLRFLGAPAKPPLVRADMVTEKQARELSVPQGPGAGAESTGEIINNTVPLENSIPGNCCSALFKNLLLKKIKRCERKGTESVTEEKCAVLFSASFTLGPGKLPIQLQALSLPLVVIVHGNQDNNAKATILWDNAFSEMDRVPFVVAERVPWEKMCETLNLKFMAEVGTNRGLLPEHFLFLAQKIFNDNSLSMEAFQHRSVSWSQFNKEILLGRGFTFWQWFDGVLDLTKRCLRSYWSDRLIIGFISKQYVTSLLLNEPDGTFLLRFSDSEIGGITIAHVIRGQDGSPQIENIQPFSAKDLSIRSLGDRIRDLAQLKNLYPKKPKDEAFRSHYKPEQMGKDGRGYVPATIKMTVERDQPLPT
Kind of assay: STAT6 Fluorescence Polarization (FP) Assay. Type of assay: binding. The settings on record: STAT6 250 nM, probe 5-FAM-Ap[…]-NH2 2 nM, 45-minute incubation; read-out: STAT6 (FP assay IC50). The gist of the method:
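Probe displacement format: serially diluted compounds incubated 45 min at room temperature with 2 nM fluorescent phosphopeptide and 250 nM STAT6 (W123-T658) in pH 7.4 HEPES buffer, 1% DMSO final. Polarization signal plotted against log concentration, IC50 fitted by nonlinear regression.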

T1 sequence (P40763 127-722): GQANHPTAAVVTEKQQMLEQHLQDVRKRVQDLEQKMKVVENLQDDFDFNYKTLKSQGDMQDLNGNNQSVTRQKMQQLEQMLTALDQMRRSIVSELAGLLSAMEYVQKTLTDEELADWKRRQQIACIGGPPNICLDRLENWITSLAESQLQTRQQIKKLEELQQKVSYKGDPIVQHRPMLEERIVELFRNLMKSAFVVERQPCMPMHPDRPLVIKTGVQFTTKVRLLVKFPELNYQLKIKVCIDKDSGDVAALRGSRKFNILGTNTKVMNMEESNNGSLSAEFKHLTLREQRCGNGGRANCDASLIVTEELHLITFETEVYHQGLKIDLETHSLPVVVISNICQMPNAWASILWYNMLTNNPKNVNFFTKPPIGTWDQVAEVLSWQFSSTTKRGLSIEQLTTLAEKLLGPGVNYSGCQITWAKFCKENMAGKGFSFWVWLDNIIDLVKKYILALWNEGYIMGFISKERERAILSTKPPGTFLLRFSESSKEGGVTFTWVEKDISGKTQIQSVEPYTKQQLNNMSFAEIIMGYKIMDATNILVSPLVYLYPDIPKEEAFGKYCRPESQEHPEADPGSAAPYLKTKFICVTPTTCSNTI

What is called IC50 is the concentration that inhibits the measured activity by half. Regarding `CCO[C@@H]1CC[C@H]2CC[C@@H](C(=O)N3CC(C(=O)N4CCOCC4)C3)N2C(=O)[C@@H](NC(=O)c2cc3cc(C(F)(F)P(=O)(O)O)ccc3s2)C1` [Compound 11, ((2-(((3S,6S,8R,10aR)-8-ethoxy-3-(3-(morpholine-4-carbonyl)azetidine-1-carbonyl)-5-oxodecahydropyrrolo [1,2-a]azocin-6-yl)carbamoyl)benzo[b]thiophen-5-yl)difluoromethyl) phosphonic acid], the 50% inhibitory concentration (IC50) in assay [1] was in the range of 0.1 to 1 µM; in assay [2] it was 3 to 30 µM.

On to `N#C[C@H]1CN(C(=O)[C@@H]2CC[C@@H]3CC[C@H](O)C[C@H](NC(=O)c4cc5cc(C(F)(F)P(=O)(O)O)ccc5s4)C(=O)N32)C[C@@H]1c1ccccc1` [Compound 12, ((2-(((3S,6S,8S,10aR)-3-((3R,4S)-3-cyano-4-phenylpyrrolidine-1-carbonyl)-8-hydroxy-5-oxodecahydropyrrolo [1,2-a]azocin-6-yl)carbamoyl)benzo[b]thiophen-5-yl)difluoromethyl) phosphonic acid], for which the half-maximal inhibitory concentration (IC50) in assay [1] is 1 to 10 µM; in assay [2], at most 0.3 µM.

In the case of `C[C@]1(O)CC[C@H](NC(=O)c2cc3cc(C(F)(F)P(=O)(O)O)ccc3s2)C(=O)N2[C@H](CC[C@H]2C(=O)N2CC(C(=O)N3CCOCC3)C2)C1` [Compound 13, (difluoro(2-(((3S,6S,9S,10aR)-9-hydroxy-9-methyl-3-(3-(morpholine-4-carbonyl)azetidine-1-carbonyl)-5-oxodecahydropyrrolo [1,2-a]azocin-6-yl)carbamoyl)benzo [b]thiophen-5-yl)methyl) phosphonic acid], the IC50 is below 0.1 µM in assay [1] and 3 to 30 µM in assay [2].

For the compound `O=C(N[C@H]1CC[C@H](O)C[C@H]2CC[C@@H](C(=O)N3CC(n4ccnc4)C3)N2C1=O)c1cc2cc(C(F)(F)P(=O)(O)O)ccc2s1` [Compound 15, ((2-(((3S,6S,9S,10aR)-3-(3-(1H-imidazol-1-yl)azetidine-1-carbonyl)-9-hydroxy-5-oxodecahydropyrrolo [1,2-a]azocin-6-yl)carbamoyl)benzo[b]thiophen-5-yl)difluoromethyl) phosphonic acid], the 50% inhibitory concentration (IC50) is below 0.1 µM in assay [1] and 0.3 to 3 µM in assay [2].

Regarding `O=C(N[C@H]1CC[C@H](O)C[C@H]2CC[C@@H](C(=O)N3CC(c4cccnc4)C3)N2C1=O)c1cc2cc(C(F)(F)P(=O)(O)O)ccc2s1` [Compound 16, (difluoro(2-(((3S,6S,9S,10aR)-9-hydroxy-5-oxo-3-(3-(pyridin-3-yl)azetidine-1-carbonyl)decahydropyrrolo[1,2-a]azocin-6-yl)carbamoyl)benzo[b]thiophen-5-yl)methyl) phosphonic acid], the IC50 in assay [1] is below 0.1 µM; in assay [2], 0.3 to 3 µM.

On to `C[C@@]1(O)CC[C@H]2CC[C@@H](C(=O)N3CC(C(=O)N4CCOCC4)C3)N2C(=O)[C@@H](NC(=O)c2cc3cc(C(F)(F)P(=O)(O)O)ccc3s2)C1` [Compound 17, (difluoro(2-(((3S,6S,8R,10aR)-8-hydroxy-8-methyl-3-(3-(morpholine-4-carbonyl)azetidine-1-carbonyl)-5-oxodecahydropyrrolo [1,2-a]azocin-6-yl)carbamoyl)benzo[b]thiophen-5-yl)methyl) phosphonic acid], for which the half-inhibitory concentration (IC50) in assay [1] is below 0.1 µM; in assay [2], 3 to 30 µM.

For `O=C(N[C@H]1CC[C@H](N2CCC2)C[C@H]2CC[C@@H](C(=O)N3CC(C(=O)N4CCOCC4)C3)N2C1=O)c1cc2cc(C(F)(F)P(=O)(O)O)ccc2s1` [Compound 20, ((2-(((3S,6S,9S,10aR)-9-(azetidin-1-yl)-3-(3-(morpholine-4-carbonyl)azetidine-1-carbonyl)-5-oxodecahydropyrrolo [1,2-a]azocin-6-yl)carbamoyl)benzo[b]thiophen-5-yl)difluoromethyl) phosphonic acid], the IC50 lay in the range of 0.1 to 1 µM in assay [1] and 3 to 30 µM in assay [2].

With `CN(C(=O)[C@@H]1CC[C@@H]2CCCC[C@H](NC(=O)c3cc4cc(C(F)(F)P(=O)(O)O)ccc4s3)C(=O)N21)c1ccc2nnccc2c1` [Compound 24, ((2-(((3S,6S,10aS)-3-(cinnolin-6-yl (methyl)carbamoyl)-5-oxodecahydropyrrolo [1,2-a]azocin-6-yl)carbamoyl)benzo[b]thiophen-5-yl)difluoromethyl) phosphonic acid], the half-inhibitory concentration (IC50) in assay [1] is 0.1 to 1 µM; in assay [2], at most 0.3 µM.

Consider `O=C(N[C@H]1CCC2(CC2)C[C@H]2CC[C@@H](C(=O)N3CC(c4cccnc4)C3)N2C1=O)c1cc2cc(C(F)(F)P(=O)(O)O)ccc2s1` [Compound 25, (difluoro(2-(((3′S,6′S,10a′R)-5′-oxo-3′-(3-(pyridin-3-yl)azetidine-1-carbonyl)octahydro-1′H-spiro [cyclopropane-1,9′-pyrrolo[1,2-a]azocin]-6′-yl)carbamoyl)benzo[b]thiophen-5-yl)methyl) phosphonic acid], for which the figures for the half-maximal inhibitory concentration (IC50) in assay [1] and in assay [2] were below 0.1 µM and 0.3 to 3 µM, respectively.

Regarding `O=C(N[C@H]1CC/C=C\[C@H]2CC[C@@H](C(=O)N3CC(c4cccnc4)C3)N2C1=O)c1cc2cc(C(F)(F)P(=O)(O)O)ccc2s1` [Compound 26, (difluoro(2-(((3S,6S,10aR,Z)-5-oxo-3-(3-(pyridin-3-yl)azetidine-1-carbonyl)-1,2,3,5,6,7,8,10a-octahydropyrrolo[1,2-a]azocin-6-yl)carbamoyl)benzo[b]thiophen-5-yl)methyl) phosphonic acid], the IC50 was below 0.1 µM in assay [1] and 0.3 to 3 µM in assay [2].

For the compound `O=C(N[C@H]1CCC[C@H]2CC[C@@H](C(=O)Nc3ccc(-c4ccccc4)cc3)N2C1=O)c1ccc2ccc(C(F)(F)P(=O)(O)O)cc2c1` [Compound 29, ((7-(((3S,6S,9aS)-3-([1,1′-biphenyl]-4-ylcarbamoyl)-5-oxooctahydro-1H-pyrrolo[1,2-a]azepin-6-yl)carbamoyl)naphthalen-2-yl)difluoromethyl) phosphonic acid], the IC50 in assay [1] was in the range of 0.1 to 1 µM; in assay [2] it was 3 to 30 µM.

Take `CN(C(=O)[C@@H]1CC[C@@H]2C/C=C\C[C@H](NC(=O)c3cc4cc(C(F)(F)P(=O)(O)O)ccc4[nH]3)C(=O)N21)c1ccccc1` [Compound 30]: the IC50 lay within 1 to 10 µM in assay [1] and 0.3 to 3 µM in assay [2].

Consider `O=C(N[C@H]1CCC[C@H]2CC[C@@H](C(=O)NCc3c[nH]c4ncccc34)N2C1=O)c1cc2cc(C(F)(F)P(=O)(O)O)ccc2s1` [Compound 31, ((2-(((3S,6S,9aS)-3-(((1H-pyrrolo[2,3-b]pyridin-3-yl)methyl)carbamoyl)-5-oxooctahydro-1H-pyrrolo[1,2-a]azepin-6-yl)carbamoyl)benzo [b]thiophen-5-yl)difluoromethyl) phosphonic acid], for which the IC50 in assay [1] was in the range of 0.1 to 1 µM; in assay [2] it was 0.3 to 3 µM.

With `CS(=N)(=O)CC1CN(C(=O)[C@@H]2CC[C@@H]3CCC[C@H](NC(=O)c4cc5cc(C(F)(F)P(=O)(O)O)ccc5s4)C(=O)N32)C1` (stereo partly drawn) [Compound 32, (difluoro(2-(((3S,6S,9aS)-3-(3-((S-methyl-sulfonimidoyl)methyl)azetidine-1-carbonyl)-5-oxooctahydro-1H-pyrrolo[1,2-a]azepin-6-yl)carbamoyl)benzo[b]thiophen-5-yl)methyl) phosphonic acid], the figures for the IC50 in assay [1] and in assay [2] were below 0.1 µM and 3 to 30 µM, respectively.

On to `O=C(N[C@H]1CCC[C@H]2CC[C@@H](C(=O)N3CC(c4cccnc4)C3)N2C1=O)c1cc2cc(C(F)(F)P(=O)(O)O)ccc2s1` [Compound 33, (difluoro(2-(((3S,6S,9S)-5-oxo-3-(3-(pyridin-3-yl)azetidine-1-carbonyl)octahydro-1H-pyrrolo[1,2-a]azepin-6-yl)carbamoyl)benzo[b]thiophen-5-yl)methyl) phosphonic acid], for which the IC50 in assay [1] is below 0.1 µM; in assay [2], 0.3 to 3 µM.

Regarding `O=C(N[C@H]1CCC[C@H]2CC[C@@H](C(=O)N3CC(N4CCOCC4)C3)N2C1=O)c1cc2cc(C(F)(F)P(=O)(O)O)ccc2s1` [Compound 34, (difluoro(2-(((3S,6S,9aS)-3-(3-morpholino-azetidine-1-carbonyl)-5-oxooctahydro-1H-pyrrolo[1,2-a]azepin-6-yl)carbamoyl)benzo[b]thiophen-5-yl)methyl) phosphonic acid], the IC50 lay within 0.1 to 1 µM in assay [1] and 3 to 30 µM in assay [2].

Take `O=C(/C=C/c1ccc(C(F)(F)P(=O)(O)O)cc1)N[C@H]1CCC[C@H]2CC[C@@H](C(=O)Nc3ccc(-c4ccccc4)cc3)N2C1=O` [Compound 35, ((4-((E)-3-(((3S,6S,9S)-3-([1,1′-biphenyl]-4-ylcarbamoyl)-5-oxooctahydro-1H-pyrrolo[1,2-a]azepin-6-yl)amino)-3-oxoprop-1-en-1-yl)phenyl)difluoromethyl) phosphonic acid]: the IC50 in assay [1] is above 10 µM; in assay [2], 3 to 30 µM.

The values are drawn from patent US20250215029A1 (Recludix Pharma, Inc., priority 2022, published 2025).
